Experimental data published in PubChem BioAssay AID248 (DTP/NCI, 2004).
Several values for one entry are separate records, joined by “and”; a condition that tells them apart may be missing. Equal values may be shown once. Toxic doses and inconclusive results are not listed. Rule as the data show it: active = T/C of 150% or more; inactive = T/C below 125%. Square brackets hold non-standard residues; d marks the D form. Peptide text beside a SMILES is read from it. * marks the point of attachment. Cbz = O=C(OCc1ccccc1)*; OBn = c1ccc(CO*)cc1; Sar = CNCC(=O)O

System: L1210 leukemia ip in BDF1 mice, survival T/C
Experiment: NCI In Vivo Anticancer Drug Screen. Data for tumor model L1210 Leukemia (intraperitoneal) in B6D2F1 (BDF1) mice
Conditions: endpoint: mean survival time, higher = longer survival
Outline: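 Transplanted-tumor mice were given test agent; controls received vehicle only. Survival readings from the two groups were divided (treated over control).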

[1] = dose: 100.0 mg/kg/injection, schedule: Q01DX009 (ip), vehicle: saline with Tween-80
[2] = dose: 200.0 mg/kg/injection, schedule: Q01DX009 (ip), vehicle: saline with Tween-80
[3] = dose: 50.0 mg/kg/injection, schedule: Q01DX009 (ip), vehicle: Klucel (hydroxypropylcellulose) (HPC)
[4] = dose: 100.0 mg/kg/injection, schedule: Q01DX009 (ip), vehicle: Klucel (hydroxypropylcellulose) (HPC)
[5] = dose: 100.0 mg/kg/injection, schedule: Q04DX003 (ip), vehicle: Klucel (hydroxypropylcellulose) (HPC)
[6] = dose: 200.0 mg/kg/injection, schedule: Q01DX009 (ip), vehicle: Klucel (hydroxypropylcellulose) (HPC)
[7] = dose: 200.0 mg/kg/injection, schedule: Q04DX003 (ip), vehicle: Klucel (hydroxypropylcellulose) (HPC)
[8] = dose: 400.0 mg/kg/injection, schedule: Q04DX003 (ip), vehicle: Klucel (hydroxypropylcellulose) (HPC)
[9] = dose: 100.0 mg/kg/injection, schedule: Q01DX009 (ip), vehicle: saline
[10] = dose: 100.0 mg/kg/injection, schedule: Q04DX002 (ip), vehicle: Klucel (hydroxypropylcellulose) (HPC)
[11] = dose: 200.0 mg/kg/injection, schedule: Q04DX002 (ip), vehicle: Klucel (hydroxypropylcellulose) (HPC)
[12] = dose: 400.0 mg/kg/injection, schedule: Q04DX002 (ip), vehicle: Klucel (hydroxypropylcellulose) (HPC)
[13] = dose: 50.0 mg/kg/injection, schedule: Q01DX001 (ip), vehicle: saline
[14] = dose: 100.0 mg/kg/injection, schedule: Q01DX001 (ip), vehicle: saline
[15] = dose: 200.0 mg/kg/injection, schedule: Q01DX001 (ip), vehicle: saline
[16] = dose: 400.0 mg/kg/injection, schedule: Q01DX001 (ip), vehicle: saline
[17] = dose: 100.0 mg/kg/injection, schedule: Q04DX002 (ip), vehicle: saline with Tween-80
[18] = dose: 200.0 mg/kg/injection, schedule: Q04DX002 (ip), vehicle: saline with Tween-80
[19] = dose: 400.0 mg/kg/injection, schedule: Q04DX002 (ip), vehicle: saline with Tween-80
[20] = dose: 100.0 mg/kg/injection, schedule: Q04DX003 (ip), vehicle: saline with Tween-80
[21] = dose: 200.0 mg/kg/injection, schedule: Q04DX003 (ip), vehicle: saline with Tween-80
[22] = dose: 400.0 mg/kg/injection, schedule: Q04DX003 (ip), vehicle: saline with Tween-80
[23] = dose: 400.0 mg/kg/injection, schedule: Q01DX009 (ip), vehicle: Klucel (hydroxypropylcellulose) (HPC)
[24] = dose: 100.0 mg/kg/injection, schedule: Q04DX003 (ip), vehicle: saline

Measured: T/C

COc1ccc(C(c2ccccc2)C(CO)CO)cc1 (centres undefined)
inactive: dose: 75.0 mg/kg/injection, schedule: Q04DX002 (ip), vehicle: Klucel (hydroxypropylcellulose) (HPC) 90 % of control | dose: 150.0 mg/kg/injection, schedule: Q04DX002 (ip), vehicle: Klucel (hydroxypropylcellulose) (HPC) 93 % of control | dose: 300.0 mg/kg/injection, schedule: Q04DX002 (ip), vehicle: Klucel (hydroxypropylcellulose) (HPC) 87 % of control

CCCCC#C/C=C/CCCC
inactive: dose: 50.0 mg/kg/injection, schedule: Q01DX009 (ip), vehicle: saline with Tween-80 95 % of control | [1] 100 % of control | [2] 100 % of control

COc1ccc(S(=O)(=O)NC(=O)NCCC=C(C)C)cc1
inactive: [3] 100 % of control | [4] 95 % of control | [5] 106 % of control | [6] 91 % of control | [7] 97 % of control | [8] 101 % of control

NNC(=O)C1CC2C=CC1C2 (centres undefined)
inactive: [9] 100 % of control | dose: 200.0 mg/kg/injection, schedule: Q01DX009 (ip), vehicle: saline 103 % of control

CC(C)c1ccc(NC(=S)NCCO)cc1
inactive: [10] 105 % of control | [11] 105 % of control | [12] 105 % of control

COc1cc2c(cc1NC(C)=O)C(=O)CCCC2
inactive: dose: 50.0 mg/kg/injection, schedule: Q01DX009 (ip), vehicle: other 92 % of control | dose: 100.0 mg/kg/injection, schedule: Q01DX009 (ip), vehicle: other 95 % of control | dose: 200.0 mg/kg/injection, schedule: Q01DX009 (ip), vehicle: other 92 % of control

O=C(CCCC(=O)N/N=C/c1ccc(I)cc1)N/N=C\c1ccc(I)cc1
inactive: [13] 100 % of control | [14] 93 % of control | [15] 93 % of control | [16] 97 % of control

Nc1nc2c(c(=O)[nH]1)CP(=S)(c1ccccc1)CC2 (centres undefined)
inactive: [17] 102 % of control | [18] 102 % of control | [19] 94 % of control

C=CCc1ccc(OCCOCCNC2CC(C)CCC2C(C)C)c(OC)c1 (centres undefined)
inactive: [5] 92 % of control

CCCC(=O)Nc1cc(C)ccc1N=Nc1ccc(C)cc1
inactive: dose: 100.0 mg/kg/injection, schedule: Q01DX001 (ip), vehicle: saline with Tween-80 95 % of control | [1] 97 % of control and 105 % of control | [17] 90 % of control and 92 % of control | [20] 100 % of control | dose: 200.0 mg/kg/injection, schedule: Q01DX001 (ip), vehicle: saline with Tween-80 103 % of control | [2] 88 % of control and 90 % of control | [18] 97 % of control and 92 % of control | [21] 97 % of control | dose: 400.0 mg/kg/injection, schedule: Q01DX001 (ip), vehicle: saline with Tween-80 98 % of control | dose: 400.0 mg/kg/injection, schedule: Q01DX009 (ip), vehicle: saline with Tween-80 97 % of control | [19] 97 % of control | [22] 97 % of control

CCc1ccccc1NC(=O)COc1ccc(Cl)cc1
inactive: [4] 98 % of control | [6] 96 % of control | [23] 91 % of control

CN1CCCCCC1
inactive: dose: 50.0 mg/kg/injection, schedule: Q01DX009 (ip), vehicle: acetone 86 % of control | dose: 100.0 mg/kg/injection, schedule: Q01DX009 (ip), vehicle: acetone 110 % of control

CC(=O)Nc1ccc(NC(=O)NCCCl)cc1
inactive: [3] 96 % of control | [4] 99 % of control | [5] 103 % of control | [6] 89 % of control | [7] 100 % of control

Nc1ccc(CCCCc2ccccc2)cc1Cl
inactive: [20] 100 % of control | [21] 100 % of control

S=C(NCc1ccccc1)NC1CCCCC1
inactive: dose: 25.0 mg/kg/injection, schedule: Q01DX009 (ip), vehicle: saline 97 % of control | dose: 50.0 mg/kg/injection, schedule: Q01DX009 (ip), vehicle: saline 100 % of control | dose: 50.0 mg/kg/injection, schedule: Q04DX003 (ip), vehicle: saline 92 % of control | [9] 96 % of control | [24] 102 % of control

CC(C)(C)C1COC(=O)C1 (centres undefined)
inactive: dose: 10.0 mg/kg/injection, schedule: Q01DX001 (ip), vehicle: saline 103 % of control | dose: 20.0 mg/kg/injection, schedule: Q01DX001 (ip), vehicle: saline 98 % of control

CN(CC(=O)OCc1ccccc1)C(=O)CNC(=O)CNC(=O)OCc1ccccc1 (Cbz-Gly-Gly-[Sar]-OBn)
inactive: [20] 92 % of control | [21] 90 % of control | [22] 95 % of control

Cc1ccc(CCn2cnc3c(=S)nc[nH]c32)cc1
inactive: [13] 98 % of control | [14] 93 % of control | [15] 104 % of control | [16] 93 % of control

CCOC(=O)C(C(=O)CC)C(COC)C(=O)OC (centres undefined)
inactive: dose: 100.0 mg/kg/injection, schedule: Q01DX001 (ip), vehicle: other 92 % of control | dose: 200.0 mg/kg/injection, schedule: Q01DX001 (ip), vehicle: other 96 % of control | dose: 400.0 mg/kg/injection, schedule: Q01DX001 (ip), vehicle: other 97 % of control

COc1ccccc1N=Nc1c(O)n(-c2ccccc2C)c(=S)n(-c2ccccc2OC)c1=O
inactive: dose: 25.0 mg/kg/injection, schedule: Q04DX003 (ip), vehicle: Klucel (hydroxypropylcellulose) (HPC) 98 % of control | dose: 50.0 mg/kg/injection, schedule: Q04DX003 (ip), vehicle: Klucel (hydroxypropylcellulose) (HPC) 98 % of control | dose: 100.0 mg/kg/injection, schedule: Q01DX001 (ip), vehicle: Klucel (hydroxypropylcellulose) (HPC) 109 % of control | [5] 91 % of control | dose: 200.0 mg/kg/injection, schedule: Q01DX001 (ip), vehicle: Klucel (hydroxypropylcellulose) (HPC) 98 % of control

Cc1ccc(NC(C(=O)c2ccccc2)c2ccccc2)cc1 (centres undefined)
inactive: dose: 300.0 mg/kg/injection, schedule: Q01DX Z (ip), vehicle: carboxymethylcellulose (CMC) 97 % of control | dose: 450.0 mg/kg/injection, schedule: Q01DX Z (ip), vehicle: carboxymethylcellulose (CMC) 103 % of control | dose: 675.0 mg/kg/injection, schedule: Q01DX Z (ip), vehicle: carboxymethylcellulose (CMC) 107 % of control

CC1Oc2ccccc2-c2c(-c3ccccc3)nnc(-c3ccccc3)c21 (centres undefined)
inactive: dose: 100.0 mg/kg/injection, schedule: Q04DX003 (ip), vehicle: gum acacia 95 % of control | dose: 200.0 mg/kg/injection, schedule: Q04DX003 (ip), vehicle: gum acacia 102 % of control | dose: 400.0 mg/kg/injection, schedule: Q04DX003 (ip), vehicle: gum acacia 98 % of control

C/C(=C\c1ccccc1)C(=O)c1ccc(-c2ccccc2)cc1
inactive: [4] 97 % of control | [5] 100 % of control | [6] 93 % of control | [7] 100 % of control | [23] 92 % of control | [8] 93 % of control

O=C(/C=C\c1ccc(O)cc1)c1ccccc1
inactive: [4] 97 % of control | [5] 89 % of control | [6] 106 % of control | [7] 96 % of control | [23] 101 % of control

O=C(Nc1cccc(Cl)c1Cl)Oc1ccc(OCc2ccccc2)cc1
inactive: [4] 87 % of control | [23] 95 % of control

COC(=O)C1CCCN1C(=O)C1CSC(C)(C)N1C=O (centres undefined)
inactive: [24] 103 % of control | dose: 200.0 mg/kg/injection, schedule: Q04DX003 (ip), vehicle: saline 92 % of control | dose: 400.0 mg/kg/injection, schedule: Q04DX003 (ip), vehicle: saline 92 % of control

COC(=O)c1cn2cc(Cl)cc(Cl)c2c1C(=O)OC
inactive: [17] 95 % of control | [18] 92 % of control | [19] 95 % of control

O=C(O)c1cccc([N+](=O)[O-])c1C(=O)O
inactive: [1] 95 % of control | [10] 98 % of control | [2] 95 % of control | [11] 88 % of control | [12] 88 % of control
